The subject of data set [1] is Mus musculus. The data set can be described thus: Antiphysostigmine effect was measured as ED50,po. The format is functional.
The species named for data set [2] is Mus musculus. Briefly: Ability to prevent the reserpine induced hypothermia in mice relative to amitriptyline. The data set is classed as functional.
Data set [3] is described as follows: Toxicity was measured as LD50,po. The settings on record: mouse, in vivo. The format is organism-based.
In data set [4] the test system is Mus musculus. Briefly: Muscle relaxant effect was measured as ED50 which is the dose that causes muscle relaxation in 50% of the mice, po. The data set is classed as functional.
The species entered for another data set is Cavia porcellus. The data set can be described thus: Concentration required to reducing the histamine induced contraction by 50% was measured. The format is functional.
Data set [5] is filed under the species Mus musculus. The data set can be described thus: The compound was tested for it's ability to reverse the reserpine induced hypothermia in mice. The format is functional.
For data set [6], the system named is Rattus norvegicus. The data set can be described thus: Antimuricide effect was observed in the olfactory bulb removed rats; antimuricide effect at 30 mg/kg; + = 31 - 50%. The data set is classed as functional.
Data set [7] relates to Rattus norvegicus. Briefly: Antimuricide effect was observed in the olfactory bulb removed rats; antimuricide effect at 30 mg/kg; + = 31-50%. The format is functional.
Data set [8] concerns Mus musculus. Briefly: The compound was tested for it's ability to reverse the reserpine induced hypothermia in mice, po. The data set is classed as functional.
For data set [9], the system named is Rattus norvegicus. The data set can be described thus: Antimuricide effect was observed in the olfactory bulb removed rats; antimuricide effect at 30 mg/kg; ++ = 51 - 70%. The data set is classed as functional.
Data set [10] is filed under the species Mus musculus. The data set can be described thus: The compound was tested for it's ability to prevent the reserpine induced hypothermia in mice. The format is functional.
Data set [11] relates to Rattus norvegicus. The data set can be described thus: Antimuricide effect was observed in the olfactory bulb removed rats; antimuricide effect at 30 mg/kg; ++ = 51-70%. The data set is classed as functional.

Structures are written as SMILES. ≈ marks a conversion by molar mass, not a printed value.

Results on 48 compounds are retold here after ChEMBL document CHEMBL1121777, “Synthesis and antidepressant activity of substituted (omega-aminoalkoxy)benzene derivatives” (J Med Chem, 1981).

Turning to `CNCCCCOc1ccccc1Cc1ccccc1.Cl`, the ED50 in the data set on Mus musculus [1] and in the data set on Mus musculus [4] was more than 200 mg/kg each time. In the data set listed under Mus musculus [2], the Relative potency is 0.78. The LD50 in data set [3] worked out at 1000 mg/kg. The 50% inhibitory concentration (IC50) in the data set filed under Cavia porcellus stood at 1.1 µg/mL. In the data set filed under Mus musculus [5], this compound gave an ED10 of 12.5 mg/kg.
`COc1ccc(Cc2ccccc2OCCCCN(C)C)cc1.Cl` had a Relative potency in the data set listed under Mus musculus [2] of 0.
Same read-out and setting: the result for `CNCCCCOc1ccccc1Cl.Cl` reads 0.
Same read-out and setting: the result for `CNCCCCOc1ccccc1Cc1ccc(Cl)cc1.Cl` reads 0.27; that for `Cl.c1ccc(Cc2ccccc2OCCCCN2CCCCC2)cc1`, 0.41.
The same measure, in the same setting: the value for `CNCCCCOc1ccccc1Cc1ccccc1OC.Cl` was 0.85; that for `CNCCCCOc1ccccc1C(O)c1ccccc1.Cl` (stereo not given) was 0.
Take `CNCCCCOc1ccc(Cl)cc1Cc1ccccc1.Cl`: the Relative potency in the data set listed under Mus musculus [2] amounted to 0.17.
Regarding `CN(C)CCCCOc1ccccc1Cl.Cl`, in the data set listed under Mus musculus [2], the Relative potency stood at 0.47.
Consider `CN(C)CCCN1c2ccccc2CCc2ccccc21` [IMIPRAMINE], for which the median effective dose (ED50) stood at 120 mg/kg in the data set on Mus musculus [1] and 190 mg/kg in the data set with Mus musculus [4]. Besides, in the data set on Rattus norvegicus [6], the Effect was 31%. For the same compound, in the data set listed under Cavia porcellus, the 50% inhibitory concentration (IC50) was found to be 0.032 µg/mL (≈ 0.114 µM).
As to `CNCCCCOc1ccccc1[S+]([O-])c1ccccc1.Cl` (stereo not given), in the data set listed under Mus musculus [2], the Relative potency amounted to 0.49.
Take `CNCCCCOc1ccccc1Sc1ccccc1.Cl`: the ED50 with Mus musculus [1] and in the data set on Mus musculus [4] was more than 200 mg/kg each time. Moreover, in the data set listed under Mus musculus [2], the Relative potency is 0.89. In the data set on Rattus norvegicus [7], the Effect turned out to be 31%. This compound registered an LD50 in data set [3] of 980 mg/kg. The half-maximal inhibitory concentration (IC50) in the data set filed under Cavia porcellus came to 2.2 µg/mL. In the data set on Mus musculus [8], this compound yielded an ED10 of 15 mg/kg.
In the data set listed under Mus musculus [2], `CN(C)CCCCOc1ccccc1Oc1ccccc1.Cl` yielded a Relative potency of 0.58.
In turn, `CN(C)CCCCCOc1ccccc1Cc1ccccc1.Cl` displayed a Relative potency in the data set filed under Mus musculus [2] of 0.23.
Still for that read-out and setting: the result for `CN(C)CCCCOc1ccccc1Cc1ccccc1.Cl` reads 0.
In turn, `CN(C)CCOc1ccccc1Cc1ccccc1.Cl` had a Relative potency in the data set filed under Mus musculus [2] of 0. Moreover, the IC50 in the data set listed under Cavia porcellus turned out to be 0.001 µg/mL.
`CCNCCCCOc1ccccc1Cc1ccccc1.Cl` gave a Relative potency in the data set filed under Mus musculus [2] of 0.53.
The same measure, in the same setting: the value for `CNCCCCOc1ccccc1C(=O)c1ccccc1.Cl` was 0; that for `CNCCCCOc1ccccc1C(=O)Nc1ccccc1.Cl` was 0.36.
The same measure, in the same setting: the value for `CN(C)CCCCOc1ccc(Cl)cc1Cc1ccccc1.Cl` was 0.26.
`CNCCCCOc1ccccc1S(=O)(=O)c1ccccc1.Cl` came in with a Relative potency in the data set listed under Mus musculus [2] of 0.17.
In the data set listed under Mus musculus [2], `CNCCCCOc1ccc(O)cc1Cc1ccccc1.Cl` gave a Relative potency of 0.31.
The same measure, in the same setting: the value for `CN(C)CCCCOc1ccccc1Cc1ccccc1O.Cl` was 0.77.
In turn, `CCNCCCOc1ccccc1Cc1ccccc1.Cl` had a Relative potency in the data set filed under Mus musculus [2] of 0.
The compound `Cc1cccc(Cc2ccccc2)c1OCCCCN(C)C.Cl` yielded a Relative potency in the data set listed under Mus musculus [2] of 0.66.
In turn, `CNCCCCOc1ccc(Cc2ccccc2)cc1.Cl` gave a Relative potency in the data set filed under Mus musculus [2] of 0.
The compound `CN(C)CCCCOc1ccccc1Sc1ccccc1.Cl` had a Relative potency in the data set listed under Mus musculus [2] of 0.7.
On the same count and under the same terms, the value for `CN(C)CCCOc1ccccc1Cc1ccccc1.Cl` was 0.
For the compound `CNCCCCOc1ccccc1Cc1ccccc1O.Cl`, the ED50 in the data set with Mus musculus [1] and with Mus musculus [4] was more than 200 mg/kg in each case. This compound had a Relative potency in the data set listed under Mus musculus [2] of 0.99. In data set [3], this compound gave a median lethal dose (LD50) of 750 mg/kg. This compound also displayed an IC50 in the data set listed under Cavia porcellus of 2.5 µg/mL. Moreover, in the data set filed under Mus musculus [5], the ED10 stood at 15 mg/kg. This compound also had an Effect with Rattus norvegicus [9] of 51%.
In the case of `CNCCCCOc1ccc(OC)cc1.Cl`, in the data set listed under Mus musculus [2], the Relative potency stood at 0.
Same read-out and setting: the value for `CCOc1ccccc1OCCCCNC.Cl` was 0.
Consider `CNCCCCOc1ccccc1C(C)c1ccccc1.Cl` (stereo not given), for which the Relative potency in the data set filed under Mus musculus [2] was determined as 0.66.
For `CNCCCCOc1ccccc1Nc1ccccc1.Cl`, in the data set filed under Mus musculus [10], the Relative potency is reported as 0.29.
Consider `CNCCOc1ccccc1Cc1ccccc1.Cl`, for which the Relative potency in the data set filed under Mus musculus [2] is 0.
Still for that read-out and setting: the result for `CNCCCCOc1ccccc1C1CCCCC1.Cl` reads 0.28; that for `CN1CCN(CCCCOc2ccccc2Cc2ccccc2)CC1.Cl`, 0; that for `CNCCCCCOc1ccccc1Cc1ccccc1.Cl`, 0.57.
The same measure, in the same setting: the value for `CNCCCCOc1ccccc1OCc1ccccc1.Cl` was 0; that for `CN(C)CCCCOc1ccccc1Cc1ccc(Cl)cc1.Cl` was 0.17.
Regarding `CN(C)CCC=C1c2ccccc2CCc2ccccc21` [AMITRIPTYLINE], the 50% effective dose (ED50) in the data set on Mus musculus [1] was 35 mg/kg; in the data set with Mus musculus [4] it was 40 mg/kg. In addition, the Effect in the data set on Rattus norvegicus [6] was 31%. Besides, the Relative potency in the data set filed under Mus musculus [2] came to 5.8. Besides, the LD50 in data set [3] was 300 mg/kg. In the data set listed under Cavia porcellus, the 50% inhibitory concentration (IC50) was 0.0083 µg/mL (≈ 0.0299 µM).
For `CC(c1ccccc1)c1ccccc1OCCCCN(C)C.Cl` (stereo not given), the Relative potency in the data set listed under Mus musculus [2] is reported as 0.36.
On the same count and under the same terms, the value for `CNCCCCOc1ccccc1CCc1ccccc1.Cl` was 0.
As for `Cl.NCCCCOc1ccccc1Cc1ccccc1`, the Relative potency in the data set filed under Mus musculus [2] is 0.
In the data set listed under Mus musculus [2], `Cc1ccc(Cc2ccccc2OCCCCN(C)C)cc1.Cl` returned a Relative potency of 0.18.
In the data set filed under Mus musculus [2], `CNCCCCOc1ccccc1Cc1ccc(C)cc1.Cl` returned a Relative potency of 0.44.
In the data set with Rattus norvegicus [11], `CNCCCCOc1ccccc1Oc1ccccc1.Cl` registered an Effect of 51%. Besides, the median effective dose (ED50) in the data set with Mus musculus [1] and in the data set with Mus musculus [4] was more than 200 mg/kg each time. The same compound registered a Relative potency in the data set listed under Mus musculus [2] of 1.1. Further, in data set [3], the LD50 is 600 mg/kg. Also, the concentration for half-maximal inhibition (IC50) in the data set filed under Cavia porcellus is 1.6 µg/mL. Besides, in the data set with Mus musculus [8], the ED10 was determined as 8.8 mg/kg.
Regarding `CNCCCCOc1ccccc1Cc1ccc(OC)cc1.Cl`, the Relative potency in the data set listed under Mus musculus [2] came out at 0.
In the data set listed under Mus musculus [2], `Cl.c1ccc(Cc2ccccc2OCCCCN2CCOCC2)cc1` registered a Relative potency of 0.3.

The term ED50 denotes the dose that gives a 50% effect, or the effect in half of the subjects. As usually defined, the LD50 is the dose expected to kill half of the subjects tested. The term IC50 denotes the concentration needed to halve the response being measured. Higher therefore signals a need for much substance.
